Data on 36 compounds can be found in patent publication US20090264433A1, “Compounds, Compositions and Methods Comprising Triazine Derivatives” (Institute for OneWorld Health, priority 2008, published 2009).

Counter-ions that a name gives are not always drawn.

T1 sequence (P13569 whole entry): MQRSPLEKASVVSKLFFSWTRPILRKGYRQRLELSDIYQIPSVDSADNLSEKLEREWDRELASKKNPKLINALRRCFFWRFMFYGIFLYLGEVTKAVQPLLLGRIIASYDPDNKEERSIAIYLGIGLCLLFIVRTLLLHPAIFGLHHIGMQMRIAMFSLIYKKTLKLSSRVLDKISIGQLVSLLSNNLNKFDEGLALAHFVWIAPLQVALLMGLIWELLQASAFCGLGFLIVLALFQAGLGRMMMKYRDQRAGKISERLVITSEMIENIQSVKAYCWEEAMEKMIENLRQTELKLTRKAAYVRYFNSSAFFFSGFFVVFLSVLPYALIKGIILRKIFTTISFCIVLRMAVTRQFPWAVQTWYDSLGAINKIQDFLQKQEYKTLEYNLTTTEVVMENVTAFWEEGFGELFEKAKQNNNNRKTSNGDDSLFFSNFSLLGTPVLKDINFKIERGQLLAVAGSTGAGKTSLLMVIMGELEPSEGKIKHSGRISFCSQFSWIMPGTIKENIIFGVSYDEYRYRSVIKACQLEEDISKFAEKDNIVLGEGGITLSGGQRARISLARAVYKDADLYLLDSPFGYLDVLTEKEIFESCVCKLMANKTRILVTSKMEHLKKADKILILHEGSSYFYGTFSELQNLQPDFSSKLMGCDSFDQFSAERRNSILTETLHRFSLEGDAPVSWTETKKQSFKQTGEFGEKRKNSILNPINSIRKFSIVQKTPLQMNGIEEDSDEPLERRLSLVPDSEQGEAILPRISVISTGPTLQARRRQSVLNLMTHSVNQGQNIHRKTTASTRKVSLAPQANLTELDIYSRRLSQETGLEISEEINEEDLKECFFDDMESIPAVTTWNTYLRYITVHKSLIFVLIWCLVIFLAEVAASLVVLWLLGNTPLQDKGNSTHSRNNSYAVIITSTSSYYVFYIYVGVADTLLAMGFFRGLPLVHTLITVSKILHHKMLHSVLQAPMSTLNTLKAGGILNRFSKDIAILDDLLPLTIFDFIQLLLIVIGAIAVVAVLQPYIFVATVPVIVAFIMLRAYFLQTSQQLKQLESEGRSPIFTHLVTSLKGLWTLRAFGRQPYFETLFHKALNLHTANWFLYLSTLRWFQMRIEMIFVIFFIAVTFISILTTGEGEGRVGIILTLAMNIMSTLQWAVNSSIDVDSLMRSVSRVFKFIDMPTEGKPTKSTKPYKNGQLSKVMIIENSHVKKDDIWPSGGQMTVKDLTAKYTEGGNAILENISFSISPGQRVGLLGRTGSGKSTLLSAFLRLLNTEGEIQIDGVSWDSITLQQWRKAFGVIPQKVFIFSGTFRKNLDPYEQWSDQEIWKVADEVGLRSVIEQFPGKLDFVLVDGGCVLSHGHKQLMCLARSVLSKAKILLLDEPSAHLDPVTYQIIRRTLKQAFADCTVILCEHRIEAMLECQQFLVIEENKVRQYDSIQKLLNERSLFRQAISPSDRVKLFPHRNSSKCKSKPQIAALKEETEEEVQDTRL

This experiment has as its target T1, CFTR channel in human colonic T84 cells (Homo sapiens, UniProt P13569).
T1 construct: results in the phosphorylation and opening of CFTR anion channels; host or cells: human colonic T84 cells
Put plainly: T84 assay (FLIPR membrane potential dye, forskolin/IBMX-stimulated CFTR). Type of experiment: cell-based. The note with it: average of at least 2 runs unless annotated n = 1. An outline of the steps:
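T84 cells (25,000/well, grown overnight) were washed in HBSS with 10 mM Hepes, then loaded with FLIPR Red membrane potential dye for 45 min with or without compound. CFTR was stimulated with 10 μM forskolin plus 100 μM IBMX after a 10 s baseline. Depolarization was tracked as a fluorescence increase, read every second for 150 s.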
In the case of `CC1(C)Cc2cccc(OCc3ncc(-c4cc(Br)c(O)c(Br)c4)nn3)c2O1` [Compound 128, 2,6-dibromo-4-(3-((2,2-dimethyl-2,3-dihydrobenzofuran-7-yloxy)methyl)-1,2,4-triazin-6-yl)phenol], the 50% inhibitory concentration (IC50) came out at 28.8 µM.
Then `Oc1c(Br)cc(-c2cnc(-c3cccc(Oc4ccccc4)c3)nn2)cc1Br` [Compound 129, 2,6-dibromo-4-(3-(3-phenoxyphenyl)-1,2,4-triazin-6-yl)phenol], with 24.8 µM.
Then `Oc1c(Br)cc(-c2cnc(Cc3cccc4ccccc34)nn2)cc1Br` [Compound 130, 2,6-dibromo-4-(3-(naphthalen-1-ylmethyl)-1,2,4-triazin-6-yl)phenol], with 28.9 µM.
Take `O=[N+]([O-])c1ccccc1SCc1ncc(-c2cc(Br)c(O)c(Br)c2)nn1` [Compound 131, 2,6-dibromo-4-(3-((2-nitrophenylthio)methyl)-1,2,4-triazin-6-yl)phenol]: the 50% inhibitory concentration (IC50) came out at 14.8 µM.
For `COc1ccc(CNc2ncc(-c3cc(Cl)c(O)c(Cl)c3)nn2)cc1` [Compound 132, 2,6-dichloro-4-(3-(4-methoxybenzylamino)-1,2,4-triazin-6-yl)phenol], inhibition was half-maximal at 12.1 µM (IC50).
The compound `Oc1c(Cl)cc(-c2cnc(NCc3ccc(Cl)c(Cl)c3)nn2)cc1Cl` [Compound 133, 2,6-dichloro-4-(3-(3,4-dichlorobenzylamino)-1,2,4-triazin-6-yl)phenol, formate salt] displayed an IC50 of 23.7 µM.
Then `Oc1c(Cl)cc(-c2cnc(NCc3ccc(Cl)cc3Cl)nn2)cc1Cl` [Compound 134, 2,6-dichloro-4-(3-(2,4-dichlorobenzylamino)-1,2,4-triazin-6-yl)phenol, formate salt], with 9.65 µM; and `Oc1c(Cl)cc(-c2cnc(NCc3ccc(Cl)cc3)nn2)cc1Cl` [Compound 135, 2,6-dichloro-4-(3-(4-chlorobenzylamino)-1,2,4-triazin-6-yl)phenol], with 6.14 µM.
In the case of `O=S1(=O)CCN(Cc2ccc(COc3ncc(-c4cc(Cl)c(O)c(Cl)c4)nn3)cc2)CC1` [Compound 136, formate salt], the IC50 came out at 18.3 µM.
The value for `CN1CCN(c2ccc(CNc3ncc(-c4cc(Cl)c(O)c(Cl)c4)nn3)cc2)CC1` [Compound 137, 2,6-dichloro-4-(3-(4-(4-methylpiperazin-1-yl)benzylamino)-1,2,4-triazin-6-yl)phenol, formate salt] was 21.3 µM; that for `CN(CCOc1ncc(-c2cc(Cl)c(O)c(Cl)c2)nn1)Cc1ccccc1` [Compound 138, 4-(3-(2-(benzyl(methyl)amino)ethoxy)-1,2,4-triazin-6-yl)-2,6-dichlorophenol] was 18.9 µM; that for `CC(C)(C)OC(=O)N1CCC(COc2ncc(-c3cc(Cl)c(O)c(Cl)c3)nn2)(c2ccccc2)CC1` [Compound 139, tert-butyl 4-((6-(3,5-dichloro-4-hydroxyphenyl)-1,2,4-triazin-3-yloxy)methyl)-4-phenylpiperidine-1-carboxylate] was 3.04 µM.
`CN(C)c1ccccc1COc1ncc(-c2cc(Cl)c(O)c(Cl)c2)nn1` [Compound 140, 2,6-dichloro-4-(3-(2-(dimethylamino)benzyloxy)-1,2,4-triazin-6-yl)phenol]: the concentration for half-maximal inhibition (IC50) worked out at 19.4 µM.
Then `Oc1c(Cl)cc(-c2cnc(OCc3ccc(CNCc4cccc(Cl)c4Cl)cc3)nn2)cc1Cl` [Compound 141, 2,6-dichloro-4-(3-(4-((2,3 —dichlorobenzylamino)methyl)benzyloxy)-1,2,4-triazin-6-yl)phenol], with 3.81 µM.
Then `O=Cc1ccc(COc2ncc(-c3cc(Cl)c(O)c(Cl)c3)nn2)cc1` [Compound 142, 4-((6-(3,5-dichloro-4-hydroxyphenyl)-1,2,4-triazin-3-yloxy)methyl)benzaldehyde], with 10.7 µM; and `Oc1c(Cl)cc(-c2cnc(OCc3ccc(CN4CCN(c5ccccc5)CC4)cc3)nn2)cc1Cl` [Compound 143, 2,6-dichloro-4-(3-(4-((4-phenylpiperazin-1-yl)methyl)benzyloxy)-1,2,4-triazin-6-yl)phenol], with 3.75 µM.
Turning to `O=C(O)c1ccccc1N1CCN(Cc2ccc(COc3ncc(-c4cc(Cl)c(O)c(Cl)c4)nn3)cc2)CC1` [Compound 144, 2-(4-(4-((6-(3,5-dichloro-4-hydroxyphenyl)-1,2,4-triazin-3-yloxy)methyl)benzyl)piperazin-1-yl)benzic acid], the half-maximal inhibitory concentration (IC50) was 28.6 µM.
On to `CC(C)(C)OC(=O)N1CCN(Cc2ccc(COc3ncc(-c4cc(Cl)c(O)c(Cl)c4)nn3)cc2)CC1` [Compound 145, tert-butyl 4-(4-((6-(3,5-dichloro-4-hydroxyphenyl)-1,2,4-triazin-3-yloxy)methyl)benzyl)piperazine1-carboxylate, ammonium salt], for which half-maximal inhibition (IC50) required 1.55 µM.
`Oc1c(Cl)cc(-c2cnc(OCc3ccc(F)cc3)nn2)cc1Cl` [Compound 146, 2,6-dichloro-4-(3-(4-fluorobenzyloxy)-1,2,4-triazin-6-yl)phenol] returned a half-maximal inhibitory concentration (IC50) of 5.21 µM.
Then `Oc1c(Cl)cc(-c2cnc(OCc3ccc(F)c(F)c3)nn2)cc1Cl` [Compound 147, 2,6-dichloro-4-(3-(3,4-difluorobenzyloxy)-1,2,4-triazin-6-yl)phenol], with 2.83 µM; and `Oc1c(Cl)cc(-c2cnc(OCc3ccc(F)cc3F)nn2)cc1Cl` [Compound 148, 2,6-dichloro-4-(3-(2,4-difluorobenzyloxy)-1,2,4-triazin-6-yl)phenol], with 3.97 µM.
In turn, `Oc1c(Cl)cc(-c2cnc(OCc3ccc(CNCc4cccc5ccccc45)cc3)nn2)cc1Cl` [Compound 149, 2,6-Dichloro-4-(3-(4-((naphthalen-1-ylmethylamino)methyl)benzyloxy)-1,2,4-triazin-6-yl)phenol] had an IC50 of 3.9 µM.
Then `Oc1c(Cl)cc(-c2cnc(OCc3ccc(CN4CCN(c5ccc(Cl)cc5Cl)CC4)cc3)nn2)cc1Cl` [Compound 150, 2,6-dichloro-4-(3-(4-((4-(2,4-dichlorophenyl)piperazin-1-yl)methyl)benzyloxy)-1,2,4-triazin-6-yl)phenol], with 2.01 µM; and `Oc1c(Cl)cc(-c2cnc(OCc3ccc(CN4CCN(c5ccc(F)cc5F)CC4)cc3)nn2)cc1Cl` [Compound 151, 2,6-dichloro-4-(3-(4-((4-(2,4-difluorophenyl)piperazin-1-yl)methyl)benzyloxy)-1,2,4-triazin-6-yl)phenol], with 1.92 µM; and `Oc1c(Cl)cc(-c2cnc(OCc3ccc(CN4CCN(CCc5ccccc5)CC4)cc3)nn2)cc1Cl` [Compound 152, 2,6-dichloro-4-(3-(4-((4-phenethylpiperazin-1-yl)methyl)benzyloxy)-1,2,4-triazin-6-yl)phenol], with 8.88 µM.
Compound `Oc1c(Cl)cc(-c2cnc(OCc3cccc(OC(F)(F)F)c3)nn2)cc1Cl` [Compound 153, 2,6-dichloro-4-(3-(3-(trifluoromethoxy)benzyloxy)-1,2,4-triazin-6-yl)phenol] showed a half-inhibitory concentration (IC50) of 2.17 µM.
With `Oc1c(Cl)cc(-c2cnc(OCc3ccc(OC(F)(F)F)cc3)nn2)cc1Cl` [Compound 154, 2,6-dichloro-4-(3-(4-(trifluoromethoxy)benzyloxy)-1,2,4-triazin-6-yl)phenol], the IC50 came to 1.56 µM.
For the compound `O=C(COc1ccccc1)N1CCN(Cc2ccc(COc3ncc(-c4cc(Cl)c(O)c(Cl)c4)nn3)cc2)CC1` [Compound 155, 1-(4-(4-((6-(3,5-dichloro-4-hydroxyphenyl)-1,2,4-triazin-3-yloxy)methyl)benzyl)piperazin1-yl)-2-phenoxyethanone], the IC50 came out at 4.95 µM.
For `Oc1c(Cl)cc(-c2cnc(OCc3ccc(CNCc4ccncc4)cc3)nn2)cc1Cl` [Compound 156, 2,6-dichloro-4-(3-(4-((pyridin-4-ylmethylamino)methyl)benzyloxy)-1,2,4-triazin-6-yl)phenol], the IC50 is 15.4 µM.
Then `Oc1c(Cl)cc(-c2cnc(OCc3ccc(CNC(CN4CCOCC4)c4ccccc4)cc3)nn2)cc1Cl` (stereo not drawn) [Compound 157, 2,6-dichloro-4-(3-(4-((2-morpholino-1-phenylethylamino)methyl)benzyloxy)-1,2,4-triazin-6-yl)phenol], with 2.27 µM; and `Oc1c(Cl)cc(-c2cnc(OCc3ccc(CN4CCN(Cc5cccnc5)CC4)cc3)nn2)cc1Cl` [Compound 158, 2,6-dichloro-4-(3-(4-((4-(pyridin-3-ylmethyl)piperazin-1-yl)methyl)benzyloxy)-1,2,4-triazin-6-yl)phenol], with 14.2 µM; and `OCCN(Cc1ccccc1)Cc1ccc(COc2ncc(-c3cc(Cl)c(O)c(Cl)c3)nn2)cc1` [Compound 159, 4-(3-(4-((benzyl(2-hydroxyethyl)amino)methyl)benzyloxy)-1,2,4-triazin-6-yl)-2,6-dichlorophenol], with 3.37 µM.
`OCCN(Cc1cccnc1)c1ncc(-c2cc(Cl)c(O)c(Cl)c2)nn1` [Compound 160, 2,6-dichloro-4-(3-((2-hydroxyethyl)(pyridin-3-ylmethyl)amino)-1,2,4-triazin-6-yl)phenol]: the IC50 was 22.4 µM.
The value for `CN(Cc1ccc(COc2ncc(-c3cc(Cl)c(O)c(Cl)c3)nn2)cc1)CC(O)c1ccccc1` (stereo not drawn) [Compound 161, 2,6-dichloro-4-(3-(4-(((2-hydroxy-2-phenylethyl)(methyl)amino)methyl)benzyloxy)-1,2,4-triazin-6-phenol, formate salt] was 18.3 µM.
Then `Oc1c(Cl)cc(-c2cnc(OCc3ccc(CN4Cc5ccccc5C4)cc3)nn2)cc1Cl` [Compound 162, 2,6-dichloro-4-(3-(4-(isoindolin-2-ylmethyl)benzyloxy)-1,2,4-triazin-6-yl)phenol], with 2.96 µM; and `CN(Cc1ccccc1)Cc1ccc(COc2ncc(-c3cc(Cl)c(O)c(Cl)c3)nn2)cc1` [Compound 163, 4-(3-(4-((benzyl(methyl)amino)methyl)benzyloxy)-1,2,4-triazin-6-yl)-2,6-dichlorophenol], with 2.66 µM.
